In patent US20240238380A1, “COMPOSITION FOR COMBINATION THERAPY COMPRISING GROWTH DIFFERENTIATION FACTOR-15 VARIANT AND GLUCAGON-LIKE PEPTIDE-1 RECEPTOR AGONIST” (YUHAN CORPORATION, priority 2021, published 2024):
Marks after values point to notes of the source that are not given here.

How the values were obtained:
[1] = Anti-obesity effect alone and in combination with semaglutide or tirzepatide in DIO mice (Example 7); assay type: in vivo; settings: for Change in body weight (%) vs. day 0, Maximum efficacy: 4 weeks
Source text: Diet-induced obese (DIO) mice, obtained by feeding mice with high-fat diet, are characterized by obesity, hyperglycemia, and insulin resistance. Diet-induced obese mice (Taconic, USA) resulting from feeding C57BL/6N mice with high-fat food (60 kcal % fat, Research Diets, Cat #D12492, USA) for 8 weeks were purchased from Raon Bio (Animal Inc., Republic of Korea). The diet-induced obese mice were additionally fed with 60% high-fat food for 5 weeks after arrival, and then used in the present test. On the day before drug treatment, the mice were grouped based on the average body weight of individual mice (n=6 per group), after which 0.1 and 1 nmol/kg of FM9-6+Fc_hole alone, 10 nmol/kg of semaglutide (long-acting GLP-1 derivative, SEQ ID NO: 114) and 10 nmol/kg of tirzepatide (long-acting GLP-1/GIP derivative, SEQ ID NO: 117) alone as control drugs, FM9-6+Fc_hole and semaglutide at doses of 0.1+10 and 1+10 nmol/kg in combination, and FM9-6+Fc_hole and tirzepatide at doses of 1+10 nmol/kg in combination were subcutaneously administered thereto every 3 days (Q3D) for a total of 4 weeks. The semaglutide that was used in the test was Ozempic® (semaglutide) from Novo NorDisk, and the tirzepatide that was used was a material synthesized by MedChemExpress (HY-P1731B, USA). Here, DPBS (Dulbecco's phosphate-buffered saline, Gibco, USA) was administered for vehicle treatment, and, during the experimental period (26 days), body weight was measured every day and food intake was measured every 3 days.

[2] = Pharmacokinetics of long-acting GDF15 fusion protein (dimer) in C57BL/6N mice; assay type: in vivo; settings: 1 mg/kg subcutaneous
Experimental: 6-week-old male C57BL/6N mice (Orient Bio, Republic of Korea) were purchased from Hallym Lab. Animal Inc., Republic of Korea. Animals were acclimated for 7 days, and on the day of drug administration, the mice were grouped based on the average body weight of individual mice (n=3 per blood sampling time per group). Then, FM9-4+Fc_hole, FM9-6+Fc_hole, FM11-4+Fc_hole, and FM11-6+Fc_hole were subcutaneously administered at 1 mg/kg to each group, and blood samples were collected at 4, 24, 48, 72, 96, 120, 168, and 240 hours after administration. Determination of active GDF15 in serum was achieved by enzyme-linked immunosorbent assay (ELISA), and pharmacokinetic parameters of each long-acting GDF15 fusion protein (dimer) are shown in Table 3 below.

[3] = target: T1, GFRAL/RET/SRE-luc-overexpressing HEK293 cell line (Homo sapiens, UniProt Q6UXV0); experiment: Functional activity of long-acting GDF15 fusion protein (Bright-Glo luciferase assay); assay type: cell-based; settings: relative to FM9-6+Fc_hole (Emax 100%)
T1 construct: expressed in transfected cells; host or cells: HEK293 (human embryonic kidney 293), overexpressing GFRAL, RET and an SRE-luciferase reporter
T1 sequence (Q6UXV0 19-394, species assumed): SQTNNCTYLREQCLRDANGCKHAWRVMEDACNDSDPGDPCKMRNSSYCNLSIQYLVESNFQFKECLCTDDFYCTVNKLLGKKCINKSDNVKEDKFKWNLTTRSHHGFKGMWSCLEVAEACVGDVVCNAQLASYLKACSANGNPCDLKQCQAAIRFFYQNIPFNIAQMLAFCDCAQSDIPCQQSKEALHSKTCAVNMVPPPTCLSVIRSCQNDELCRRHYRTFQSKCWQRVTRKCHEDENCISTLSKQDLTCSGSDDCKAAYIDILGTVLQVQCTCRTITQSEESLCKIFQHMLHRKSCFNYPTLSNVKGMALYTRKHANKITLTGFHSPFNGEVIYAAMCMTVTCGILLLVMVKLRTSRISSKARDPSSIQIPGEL
T1 sequence (P07949 29-1114 partner, species assumed): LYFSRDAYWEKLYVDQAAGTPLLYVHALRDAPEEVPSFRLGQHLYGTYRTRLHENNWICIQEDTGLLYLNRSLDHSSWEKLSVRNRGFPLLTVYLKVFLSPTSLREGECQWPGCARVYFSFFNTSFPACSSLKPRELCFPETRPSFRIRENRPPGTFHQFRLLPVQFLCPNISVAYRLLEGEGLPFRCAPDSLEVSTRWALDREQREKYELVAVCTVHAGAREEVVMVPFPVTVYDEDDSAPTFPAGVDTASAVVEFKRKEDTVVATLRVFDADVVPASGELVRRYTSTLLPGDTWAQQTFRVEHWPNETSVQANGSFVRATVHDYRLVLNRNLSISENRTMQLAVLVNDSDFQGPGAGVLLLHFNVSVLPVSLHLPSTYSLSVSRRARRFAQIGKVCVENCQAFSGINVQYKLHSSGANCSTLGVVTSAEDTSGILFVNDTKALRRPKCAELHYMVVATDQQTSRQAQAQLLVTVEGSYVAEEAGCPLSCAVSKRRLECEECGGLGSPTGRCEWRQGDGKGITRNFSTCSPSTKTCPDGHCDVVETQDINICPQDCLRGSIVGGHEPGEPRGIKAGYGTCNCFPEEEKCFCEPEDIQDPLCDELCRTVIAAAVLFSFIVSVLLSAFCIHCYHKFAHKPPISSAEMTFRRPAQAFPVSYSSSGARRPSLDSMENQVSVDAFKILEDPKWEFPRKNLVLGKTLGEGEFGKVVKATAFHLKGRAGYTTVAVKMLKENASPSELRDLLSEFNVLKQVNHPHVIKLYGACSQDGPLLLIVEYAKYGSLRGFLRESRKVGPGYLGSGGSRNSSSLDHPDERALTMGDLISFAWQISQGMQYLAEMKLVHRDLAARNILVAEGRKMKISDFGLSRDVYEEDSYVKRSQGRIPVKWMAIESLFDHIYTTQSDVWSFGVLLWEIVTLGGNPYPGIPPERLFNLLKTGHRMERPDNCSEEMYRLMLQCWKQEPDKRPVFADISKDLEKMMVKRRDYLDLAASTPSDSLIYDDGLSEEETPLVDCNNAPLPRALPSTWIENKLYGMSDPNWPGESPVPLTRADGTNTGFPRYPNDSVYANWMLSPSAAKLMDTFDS
Experimental: Two variants (FM9+Fc_hole, FM11+Fc_hole) were compared and evaluated for GDF15 activity depending on the linker type and length. The GDF15 activity was measured using a Bright-Glo™ luciferase assay kit (Promega) and a GFRAL/RET/SRE-luc-overexpressing HEK293 cell line (Human embryonic kidney 293).
Specifically, 1×10^5 GFRAL/RET/SRE-luc-overexpressing HEK293 cells were dispended in DMEM containing 10% FBS in each well of a 96-well-plate, followed by culture at 37° C. and 5% CO2 for 24 hours. After 24 hours, each medium of the 96-well plate was replaced with 50 μl of a serum-free medium, followed by culture at 37° C. and 5% CO2 for 4 hours.
In addition, the long-acting GDF15 fusion protein produced in Example 1 was prepared by 3-fold serial dilution from a concentration of 2000 nM using a serum-free medium. Thereafter, 50 μl of the long-acting GDF15 fusion protein dilution was added to each well containing 50 μl of the replaced serum-free medium and the GERAL/RET/SRE-luc cell line so that the actual concentration thereof was serially diluted 3-fold from 1000 nM, followed by reaction at 37° C. and 5% CO2 for 4 hours. After 4 hours, each well was treated with 100 μl of a Bright-Glo™ solution prepared by adding a Bright-Glo™ buffer to a Bright-Glo™ substrate, followed by reaction at room temperature for 1 minute.
Thereafter, the reaction value (relative light units, RLU) was measured using a microplate reader (Perkin Elmer, Wallac Victor X5) capable of measuring luminescence. The results thereof are shown in Table 2 below and in FIGS. 1 and 2. Here, the functional activity of the long-acting GDF15 fusion protein depending on the GDF15 sequence, linker type, and length was compared based on the in-vitro GDF15 activity of FM9-6+Fc_hole (Emax 100%).

[4] = Anti-obesity effect alone and in combination with semaglutide in diet-induced obese (DIO) mice (Example 4); assay type: in vivo; settings: for Change in body weight (%) vs. day 0, Maximum efficacy: 8 weeks
Source text: Diet-induced obese (DIO) mice, obtained by feeding mice with high-fat food, are characterized by obesity, hyperglycemia, and insulin resistance. Diet-induced obese mice (Taconic, USA) resulting from feeding C57BL/6N mice with high-fat food (60 kcal % fat, Research Diets, Cat #D12492, USA) for 8 weeks were purchased from Raon Bio (Animal Inc., Republic of Korea). The diet-induced obese mice were additionally fed with 60% high-fat food for 5 weeks after arrival, and then used in the present test. On the day before drug treatment, the mice were grouped based on the average body weight of individual mice (n=6 per group), after which 10 and 30 nmol/kg of FM9-6+Fc_hole alone, 10 and 30 nmol/kg of semaglutide (long-acting GLP-1 derivative, SEQ ID NO: 114) alone as a control drug, and FM9-6+Fc_hole and semaglutide were administered subcutaneously every 2 days (Q2D) for a total of 8 weeks in a combination of 10+10 and 30+30 nmol/kg. The semaglutide that was used in the test was Ozempic® (semaglutide) from Novo NorDisk. Here, for vehicle treatment, DPBS (Dulbecco's phosphate-buffered saline, Gibco, USA) was subcutaneously administered every 2 days (Q2D). Body weight was measured every 2 days from the first day of drug treatment to day 54, and the results thereof are shown in Table 4 below.

## FM9-6 + Fc_hole: long-acting GDF15 fusion protein (dimer): GDF15 ΔN2, S64R, IgG1 Fc_knob/Fc_hole, linker GS(EAAAK)5; SEQ ID NOs: 103 and 47
[1]; 0.1 nmol/kg s.c. Q3D
  Change in body weight (%) vs. day 0, Maximum efficacy: −6.75 (On Day 25)** %
  Change in body weight (%) vs. day 0, Efficacy on Day 26: −6.68** %
[1]; 1 nmol/kg s.c. Q3D
  Change in body weight (%) vs. day 0, Maximum efficacy: −16.33 (On Day 23)**** %
  Change in body weight (%) vs. day 0, Efficacy on Day 26: −16.29**** %
[2]
  AUClast: 939.30872 µg·h/mL
  CL/F: 21.8 mL/day/kg
  T1/2,app: 84.28 h
  Tmax: 24 h
[2]; active GDF15 in serum by ELISA
  Cmax: 7581.92 ng/mL
[3]
  Emax (%): 100.0%
[4]; 10 nmol/kg s.c. Q2D
  Change in body weight (%) vs. day 0, Maximum efficacy: −34.57 (On Day 54)**** %
  Change in body weight (%) vs. day 0, Efficacy on Day 54: −34.57**** %
[4]; 30 nmol/kg s.c. Q2D
  Change in body weight (%) vs. day 0, Maximum efficacy: −35.07 (On Day 54)**** %
  Change in body weight (%) vs. day 0, Efficacy on Day 54: −35.07**** %
